Assay results: ChEMBL document CHEMBL1131984, “Synthesis and antitumour activity of novel diterpenequinone salvicine and the analogs” (Bioorg Med Chem Lett, 1999)
Values joined by “and” are separate entries in the source; they are usually repeats but may differ in a detail not shown here. Equal entries are not always repeated.

How the values were obtained:
SGC-7901 = assay: In vitro cytotoxic activity against SGC-7901 stomach cancer solid tumor cell line by MTT assay (microculture terazolium colorimetric); format: functional, cell-based; conditions: Homo sapiens
P388 = assay: In vitro cytotoxic activity against P388 mouse leukemia cell line by MTT assay (microculture terazolium colorimetric); format: functional, cell-based
HL-60 [1] = assay: In vitro cytotoxic activity against HL-60 human leukemia cell line by MTT assay (microculture terazolium colorimetric); format: functional, cell-based
SPC-A4 = assay: In vitro cytotoxic activity against SPC-A4 lung cancer solid tumor cell line by MTT assay (microculture terazolium colorimetric); format: functional, cell-based; conditions: Homo sapiens
HL-60 [2] = assay: In vitro cytotoxic activity against HL-60 human leukemia cell line was determined by MTT assay (microculture terazolium colorimetric); format: functional, cell-based
Mus musculus [3] = assay: In vivo inhibitory activity against human lung adenocarcinoma xenograft LAX-83 in mice at a dose of 20 mg/kg (Q2dx10) administered i.p.; format: functional; conditions: route intraperitoneal
Mus musculus [4] = assay: Ratio of the tumor weight of mice at the initial stage and the final stage of the experiment was reported at a dose of 20 mg/kg (Q2dx10) administered i.p.; format: functional; conditions: route intraperitoneal
Mus musculus [5] = assay: (§1) Ratio of the tumor weight of mice at the initial stage and the final stage of the experiment was reported at a dose of 7.5 mg/kg i.p. (day 10); format: functional; conditions: route intraperitoneal
Mus musculus [6] = assay: (§2) In vivo inhibitory activity against murine S-180 sarcoma at a dose of 15 mg/kg (day 6); format: functional; conditions: S-180, 144 h
Mus musculus [7] = assay: (§3) In vivo inhibitory activity against murine S-180 sarcoma at a dose of 7.5 mg/kg (day 7); format: functional; conditions: S-180, 168 h
Mus musculus [8] = assay: (§4) Ratio of the tumor weight of mice at the initial stage and the final stage of the experiment was reported at a dose of 15 mg/kg i.p. (day 9); format: functional; conditions: route intraperitoneal
Mus musculus [9] = assay: In vivo inhibitory activity against murine S-180 sarcoma at a dose of 7.5 mg/kg i.p. (day 7); format: functional; conditions: S-180, ip, 168 h, route intraperitoneal
Mus musculus [10] = assay: In vivo inhibitory activity against human lung adenocarcinoma xenograft A-549 in mice at a dose of 20 mg/kg (Q2dx10) administered i.p.; format: functional; conditions: route intraperitoneal
Mus musculus [11] = assay: as §3; format: functional; conditions: S-180, 168 h; remark: listed apart in the source
Mus musculus [12] = assay: (§5) Ratio of the tumor weight of mice at the initial stage and the final stage of the experiment was reported at a dose of 7.5 mg/kg (day 7); format: functional
Mus musculus [13] = assay: In vivo inhibitory activity against human lung adenocarcinoma xenograft A-549 in mice at a dose of 20 mg/kg (Q2dx9) administered i.p.; format: functional; conditions: A549, ip, route intraperitoneal
Mus musculus [14] = assay: In vivo inhibitory activity against human lung adenocarcinoma xenograft LAX-83 in mice at a dose of 30 mg/kg (Q2dx10) administered i.p.; format: functional; conditions: route intraperitoneal
Mus musculus [15] = assay: In vivo inhibitory activity against murine S-180 sarcoma at a dose of 15 mg/kg i.p. (day 6); format: functional; conditions: S-180, ip, 144 h, route intraperitoneal
Mus musculus [16] = assay: In vivo inhibitory activity against murine S-180 sarcoma at a dose of 3.75 mg/kg i.p. (day 7); format: functional; conditions: S-180, ip, 168 h, route intraperitoneal
Mus musculus [17] = assay: Ratio of the tumor weight of mice at the initial stage and the final stage of the experiment was reported at a dose of 10 mg/kg (Q2dx10) administered i.p.; format: functional; conditions: route intraperitoneal
Mus musculus [18] = assay: Ratio of the tumor weight of mice at the initial stage and the final stage of the experiment was reported at a dose of 3.75 mg/kg (day 7); format: functional
Mus musculus [19] = assay: as §5; format: functional; remark: listed apart in the source
Mus musculus [20] = assay: as §4; format: functional; conditions: route intraperitoneal; remark: listed apart in the source
Mus musculus [21] = assay: (§6) Ratio of the tumor weight of mice at the initial stage and the final stage of the experiment was reported at a dose of 30 mg/kg (Q2dx10) administered i.p.; format: functional; conditions: route intraperitoneal
Mus musculus [22] = assay: In vivo inhibitory activity against human lung adenocarcinoma xenograft A-549 in mice at a dose of 30 mg/kg (Q2dx10) administered i.p.; format: functional; conditions: route intraperitoneal
Mus musculus [23] = assay: as §2; format: functional; conditions: S-180, 144 h; remark: listed apart in the source
Mus musculus [24] = assay: In vivo inhibitory activity against human lung adenocarcinoma xenograft A-549 in mice at a dose of 10 mg/kg (Q2dx10) administered i.p.; format: functional; conditions: route intraperitoneal
Mus musculus [25] = assay: Ratio of the tumor weight of mice at the initial stage and the final stage of the experiment was reported at a dose of 3.75 mg/kg i.p. (day 10); format: functional; conditions: route intraperitoneal
Mus musculus [26] = assay: Ratio of the tumor weight of mice at the initial stage and the final stage of the experiment was reported at a dose of 30 mg/kg (Q2dx9) administered i.p.; format: functional; conditions: route intraperitoneal
Mus musculus [27] = assay: as §6; format: functional; conditions: route intraperitoneal; remark: listed apart in the source
Mus musculus [28] = assay: Ratio of the tumor weight of mice at the initial stage and the final stage of the experiment was reported at a dose of 20 mg/kg (Q2dx9) administered i.p.; format: functional; conditions: route intraperitoneal
Mus musculus [29] = assay: (§7) Ratio of the tumor weight of mice at the initial stage and the final stage of the experiment was reported at a dose of 15 mg/kg (day 6); format: functional
Mus musculus [30] = assay: In vivo inhibitory activity against murine Lewis lung cancer at a dose of 15 mg/kg i.p. (day10); format: functional; conditions: route intraperitoneal
Mus musculus [31] = assay: as §1; format: functional; conditions: route intraperitoneal; remark: listed apart in the source
Mus musculus [32] = assay: In vivo inhibitory activity against murine Lewis lung cancer at a dose of 7.5 mg/kg i.p. (day10); format: functional; conditions: ip, 240 h, route intraperitoneal
Mus musculus [33] = assay: In vivo inhibitory activity against murine Lewis lung cancer at a dose of 37.5 mg/kg i.p. (day10); format: functional; conditions: route intraperitoneal
Mus musculus [34] = assay: In vivo inhibitory activity against murine S-180 sarcoma at a dose of 3.75 mg/kg (day 7); format: functional; conditions: S-180, 168 h
Mus musculus [35] = assay: In vivo inhibitory activity against human lung adenocarcinoma xenograft A-549 in mice at a dose of 10 mg/kg (Q2dx9) administered i.p.; format: functional; conditions: A549, ip, route intraperitoneal
Mus musculus [36] = assay: as §7; format: functional; remark: listed apart in the source
Mus musculus [37] = assay: In vivo inhibitory activity against human lung adenocarcinoma xenograft LAX-83 in mice at a dose of 10 mg/kg (Q2dx10) administered i.p.; format: functional; conditions: route intraperitoneal; for inhibition in vivo at 10 mg/kg: ip
Mus musculus [38] = assay: Ratio of the tumor weight of mice at the initial stage and the final stage of the experiment was reported at a dose of 3.75 mg/kg i.p. (day 7); format: functional; conditions: route intraperitoneal
Mus musculus [39] = assay: In vivo inhibitory activity against human lung adenocarcinoma xenograft A-549 in mice at a dose of 30 mg/kg (Q2dx9) administered i.p.; format: functional; conditions: A549, ip, route intraperitoneal

How did the IC50 (SGC-7901) turn out when Cc1ccc2c(c1CCC1OC1(C)C)C(=O)C(=O)C(C(C)C)=C2 (stereo unspecified) was run?
Its IC50 is 71.5 µM.

What about the IC50 (P388) of the same compound?
The IC50 was 3.38 µM.

And the IC50 (HL-60 [1])?
Its IC50 is 4.48 µM.

What about the IC50 (SPC-A4) of the same compound?
The IC50 was 1.88 µM.

Cc1ccc2c(c1CCC(Br)C(C)(C)O)C(=O)C(=O)C(C(C)C)=C2 (stereo unspecified) was tested. Which IC50 (SGC-7901) did it give?
Its IC50 is 6.12 µM.

What about the IC50 (P388) of the same compound?
Its IC50 is 3.99 µM.

What about the IC50 (HL-60 [1]) of the same compound?
The IC50 was 4.61 µM.

And the IC50 (SPC-A4)?
Its IC50 is 1.45 µM.

With CC(C)=CCCc1c(C)ccc2c1C(=O)C(=O)C(C(C)C)=C2 as the compound, how does the IC50 (HL-60 [2]) read?
The IC50 was 2.36 µM.

And the IC50 (SGC-7901)?
The IC50 was 1.37 µM.

And the IC50 (P388)?
Its IC50 is 1.95 µM.

And the IC50 (SPC-A4)?
Its IC50 is 2.75 µM.

With Cc1ccc2c(c1CCC(=O)C(C)C)C(=O)C(=O)C(C(C)C)=C2 as the compound, how does the IC50 (SGC-7901) read?
The IC50 was 1.98 µM.

And the IC50 (P388)?
Its IC50 is 0.83 µM.

And the IC50 (HL-60 [1])?
The IC50 was 0.27 µM.

And the IC50 (SPC-A4)?
Its IC50 is 3.38 µM.

Which IC50 (SGC-7901) does the source give for Cc1ccc2c(c1CCC(=O)O)C(=O)C(=O)C(C(C)C)=C2 here?
Its IC50 is 66.9 µM.

What about the IC50 (P388) of the same compound?
The IC50 was 1.46 µM.

And the IC50 (HL-60 [1])?
Its IC50 is 2.84 µM.

And the IC50 (SPC-A4)?
The IC50 was 2.62 µM.

What does the source list for Cc1ccc2c(c1CCC(O)C(C)(C)O)C(=O)C(=O)C(C(C)C)=C2 (stereo unspecified)?
Inhibition (Mus musculus [3]): 26.73% and 17.53% and 9.39%; Tumor weight (Mus musculus [4]): 1.25 g [middle of 5 runs]; Tumor weight (Mus musculus [5]): 0.97 g; inhibition in vivo at 15 mg/kg (Mus musculus [6]): 48.9%; inhibition in vivo at 7.5 mg/kg (Mus musculus [7]): 35.5%; Tumor weight (Mus musculus [8]): 0.75 g; inhibition in vivo at 7.5 mg/kg (Mus musculus [9]): 48.9%; Inhibition (Mus musculus [10]): 60.55% and 27.76%; inhibition in vivo at 7.5 mg/kg (Mus musculus [11]): 32.2%; Tumor weight (Mus musculus [12]): 1.07 g and 1.4 g; inhibition in vivo at 20 mg/kg (Mus musculus [13]): 53.6%; Inhibition (Mus musculus [14]): 40.31% and 51.42% and 61.59%; inhibition in vivo at 15 mg/kg (Mus musculus [15]): 61.3%; inhibition in vivo at 3.75 mg/kg (Mus musculus [16]): 37.2%; Tumor weight (Mus musculus [17]): 1.13 g [middle of 5 runs]; Tumor weight (Mus musculus [18]): 1.99 g and 1.72 g; Tumor weight (Mus musculus [19]): 1.22 g; Tumor weight (Mus musculus [20]): 0.91 g; Tumor weight (Mus musculus [21]): 0.72 g and 0.53 g and 1.02 g; Inhibition (Mus musculus [22]): 55.6% and 80.14%; IC50 (SGC-7901): 1.84 µM; inhibition in vivo at 15 mg/kg (Mus musculus [23]): 44%; inhibition in vivo at 10 mg/kg (Mus musculus [24]; Mus musculus, A549, ip): 48.2%; Inhibition (Mus musculus [24]; 10 mg/kg): 30.15%; Tumor weight (Mus musculus [25]): 1.28 g and 1.85 g; Tumor weight (Mus musculus [26]): 1.67 g; Tumor weight (Mus musculus [27]): 0.93 g and 0.44 g; Tumor weight (Mus musculus [28]): 1.59 g; Tumor weight (Mus musculus [29]): 0.93 g; inhibition in vivo at 15 mg/kg (Mus musculus [30]; Mus musculus, Lung, ip, 240 h): 49%; Inhibition (Mus musculus [30]; 15 mg/kg): 54.5%; IC50 (P388): 3.49 µM; Tumor weight (Mus musculus [31]): 1.32 g; inhibition in vivo at 7.5 mg/kg (Mus musculus [32]): 34%; inhibition in vivo at 37.5 mg/kg (Mus musculus [33]; Mus musculus, Lung, ip, 240 h): 12.9%; Inhibition (Mus musculus [33]; 37.5 mg/kg): 7.5%; inhibition in vivo at 3.75 mg/kg (Mus musculus [34]): 8.4%; IC50 (HL-60 [1]): 3.57 µM; inhibition in vivo at 10 mg/kg (Mus musculus [35]): 25.5%; IC50 (SPC-A4): 2.46 µM; Tumor weight (Mus musculus [36]): 0.92 g and 1.06 g; inhibition in vivo at 10 mg/kg (Mus musculus [37]; Mus musculus): 41%; inhibition in vivo at 10 mg/kg (Mus musculus [37]): 28%; Inhibition (Mus musculus [37]; 10 mg/kg): 31.23%; Tumor weight (Mus musculus [38]): 1.52 g; inhibition in vivo at 30 mg/kg (Mus musculus [39]): 51.2%
